# Assay results reported in patent US9750724B2, “Use of an aromatase inhibitor for the treatment of hypogonadism and related diseases” (Mereo BioPharma 2 Limited, priority 2011, dated 2017).
# How the values were obtained:
# [1] = Single ascending dose study in pre- and post-menopausal women, pharmacokinetics; type: in vivo, human; conditions: for AUC(0-t): AUC (0-tlast) Mean; for Cmax: Cmax Mean
# Excerpt: The drug concentration in plasma and/or serum samples can be determined by a number of different ways, e.g. HPLC or LC-MS/MS analyses. […]
# A minimal toxic dose (MTD) was not reached. […] Table 3 presents the PK parameters based on preliminary analysis of the concentration-time profile obtained from this study.
# [2] = system: serum testosterone and estradiol; assay: 12 week open label dose-finding study (Part 1) in obese hypogonadotropic hypogonadal men; type: in vivo, human
# Excerpt: The study is designed as a 2-part study, with Part 1 being open-label to best determine the appropriate dose levels to use in Part 2, which has a randomized, double-blind, placebo controlled design.
# As set out above, this is a two-part study in obese, hypogonadotropic hypogonadal (OHH) men, wherein Part 1 is a single group, open label, non-randomized study establishing appropriate dosing. After all subjects have successfully completed 4 weeks of treatment, they continue for up to a total of 12 weeks of treatment. Then Part 2 follows as a parallel group, randomized, double-blind, placebo-controlled design, for 12 weeks of treatment, with an interim analysis after 4 weeks of treatment. Both Parts of the study have up to a 28 day screening period, a single baseline day, a 12 week treatment period (11 weekly doses), followed by a 3 month follow-up period.
# Thus, for Part 1 of the study, it was decided to start with 0.01 mg as the loading dose, assess the testosterone response at 5 or 6 days after a single dose, and adjust the next weekly dose up or down based on the acute testosterone response. The weekly maintenance dose is not expected to exceed 0.5 mg. For at least the first 4 weeks of treatment, subject's sex steroid levels are measured prior to their subsequent dosing. The subsequent dose is the adjusted based on the prior response.
# If free testosterone is above normal, the Week 2 dose will be 1/10 (0.001 mg) of the loading dose. If free testosterone is below normal, the Week 2 dose will be ½ of the loading dose (0.005 mg). Subsequent weekly doses are adjusted on a ½ log order to achieve normalization of free testosterone levels.
# Assessments and evaluations: The following assessments will be performed during the study: • 1. Background, demographic and administrative assessments • Inclusion/exclusion criteria; Relevant medical history/Current medical conditions • Demography • Physical examination, including digital prostate examination • International Prostate Symptom Score (IPSS) • Hepatitis screen, HIV screen • Alcohol test, Drug screen • Prolactin, ferritin and thyroid stimulating hormone (TSH) • Drug administration: each time study drug is administered • Study Completion information • Comments • 2. Safety and tolerability assessments • Vital signs and body measurements • Body height (BMI will be calculated) • Body weight* • Body temperature • Blood pressure, pulse rate • ECG evaluations • Hematology; Blood chemistry; Urinalysis • Prostate specific antigen (PSA) • Adverse events: from time of first administration of study drug until Study Completion. Adverse events occurring before starting study treatment but after signing the informed consent form are recorded on the Medical History/Current Medical Conditions Case Report Form. • Serious adverse events: from time of consent until 30 days after Study Completion • Concomitant medications/Significant non-drug therapies: Refer to entry criteria and Concomitant medication for details of recording requirements for allowed and restricted medications during the study. • 3. Pharmacokinetic (PK) blood assessments: PK samples will be collected on multiple occasions during the treatment phase of the study. PK assessments will also be collected every 6 weeks during the safety follow-up period. […]
# [3] = female, human, in vivo, 0.01 mg
# [4] = female, human, in vivo, 0.03 mg
# [5] = weekly oral doses 0.003 mg to 5 mg
structure (smiles),measurement,setting,value
"N#Cc1ccc(C(F)(c2ccc(C#N)cc2)n2cncn2)cc1 [CGP47645, 4,4′-[fluoro-(1-H-1,2,4-triazol-1-yl)methylene]bisbenzonitrile]",Tmax,[1]; [3],0.0417 days
same,AUC(0-t),[1]; [3],1.4 ng·h/mL
same,Cmax,[1]; [3],0.2 ng/mL
same,half-life,"[1]; female, human, in vivo, 0.01 mg, T1/2 Mean",2.3 days
same,AUC(0-t),[1]; [4],24.1 ng·h/mL
same,Cmax,[1]; [4],0.4 ng/mL
same,half-life,"[1]; female, human, in vivo, 0.03 mg, T1/2 Mean",16.5 days
same,T1/2 Mean,"[1]; female, human, in vivo, 0.1 mg",23.5 days
same,Tmax,"[1]; female, human, in vivo, 0.1 mg",0.0417 days
same,Tmax Median,"[1]; female, human, in vivo, 0.1 mg",0.042 days
same,AUC(0-t),"[1]; female, human, in vivo, 0.1 mg",123 ng·h/mL
same,Cmax,"[1]; female, human, in vivo, 0.1 mg",1.8 ng/mL
same,half-life,"[1]; female, human, in vivo, 0.1 mg, T1/2 Mean",18.2 days
same,Tmax,"[1]; female, human, in vivo, 0.3 mg",0.0417 days
same,AUC(0-t),"[1]; female, human, in vivo, 0.3 mg",605 ng·h/mL
same,Cmax,"[1]; female, human, in vivo, 0.3 mg",5.1 ng/mL
same,half-life,"[1]; female, human, in vivo, 0.3 mg, T1/2 Mean",23.5 days
same,Tmax,"[1]; female, human, in vivo, 1 mg",0.0417 days
same,AUC(0-t),"[1]; female, human, in vivo, 1 mg",3200 ng·h/mL
same,Cmax,"[1]; female, human, in vivo, 1 mg",12.8 ng/mL
same,half-life,"[1]; female, human, in vivo, 1 mg, T1/2 Mean",22.4 days
same,Tmax,"[1]; female, human, in vivo, 3 mg",0.0417 days
same,AUC(0-t),"[1]; female, human, in vivo, 3 mg",10100 ng·h/mL
same,Cmax,"[1]; female, human, in vivo, 3 mg",38.4 ng/mL
same,half-life,"[1]; female, human, in vivo, 3 mg, T1/2 Mean",25 days
same,Tmax,"[1]; female, human, in vivo, 10 mg",0.0833 days
same,AUC(0-t),"[1]; female, human, in vivo, 10 mg",41700 ng·h/mL
same,Cmax,"[1]; female, human, in vivo, 10 mg",124 ng/mL
same,half-life,"[1]; female, human, in vivo, 10 mg, T1/2 Mean",27.3 days
same,Tmax,"[1]; female, human, in vivo, 20 mg",0.0833 days
same,AUC(0-t),"[1]; female, human, in vivo, 20 mg",76700 ng·h/mL
same,Cmax,"[1]; female, human, in vivo, 20 mg",270 ng/mL
same,half-life,"[1]; female, human, in vivo, 20 mg, T1/2 Mean",26.9 days
same,half-life,"[1]; female, human, in vivo, half life",~25 days
same,half-life,"[1]; female, human, in vivo, half-life in serum",22 to 29 days
same,Tmax,"[1]; female, human, in vivo, po",0.021 to 0.083 days
same,median Tmax,"[1]; female, human, in vivo, po",≤ 0.042 days
same,half-life,"[1]; female, human, in vivo, po, half-life",23 to 27 days
same,differences in pharmacokinetics between post- and pre-menopausal women,[1]; in vivo,No differences
same,dose proportionality of pharmacokinetics,"[1]; single doses 0.01 to 20 mg, women",dose proportional pharmacokinetics
same,tolerability,"[2]; 14 obese hypogonadal men, weekly oral doses 0.003 mg to 5 mg, 12 weeks",tolerated CGP47645 well
same,testosterone normalization (RIA),"[2]; 14 obese hypogonadal men, weekly oral doses 0.003 mg to 5 mg, during treatment",rose in all men individually into the normal range
same,average serum estradiol at week 12,"[2]; baseline 24±4.9 pg/mL, LC-MS",18 ± 9.4 pg/mL
same,average testosterone at week 12,"[2]; baseline 250±22.3 ng/dL, RIA",550 ± 191.8 ng/dL
same,average change of testosterone from baseline to week 12,[2]; [5],approximately 2 fold
same,reduction of serum estradiol (LC-MS),[2]; [5],30-50%
